The text below walks through data of patent US20240368159A1, “HPK1 DEGRADERS, COMPOSITIONS COMPRISING THE HPK1 DEGRADER, AND METHODS OF USING THE SAME” (BIOFRONT LTD, priority 2021, published 2024).

Bounds are passed on as bounds.

The target in test [1] is T1, HPK1 protein (Homo sapiens, UniProt Q92918).
T1 construct: Frozen human PBMC were purchased from Shanghai OribioTech; host or cells: human PBMC
As to the kind of experiment: HPK1 protein degradation in human PBMC (western blot). The class given is cell-based. The note with it: 18 h incubation. The procedure:
HPK1 protein degradation in human PBMC: Frozen human PBMC were purchased from Shanghai OribioTech and recovered with culture medium (RMPI1640) prior to use. The cells were then incubated with a variety of concentrations of compound. After incubation for 18 h, the cells were collected and lysed. The protein concentration was determined by BCA protein assay kit from Thermo (23227). The HPK1 protein level was determined by western blots, using anti-human HPK1 polyclonal antibody from CST (4472S). Proteins were loaded into each well of the pre-casting gels and subjected to electrophoretic separation by SDS-PAGE. The protein resolved by SDS-PAGE were transferred to PVDF, blocked by 5% skim milk, and probed with anti-human HPK1 antibody or β-actin antibody from CST (3700S), using standard western blotting procedure.
T1 sequence (Q92918 whole entry): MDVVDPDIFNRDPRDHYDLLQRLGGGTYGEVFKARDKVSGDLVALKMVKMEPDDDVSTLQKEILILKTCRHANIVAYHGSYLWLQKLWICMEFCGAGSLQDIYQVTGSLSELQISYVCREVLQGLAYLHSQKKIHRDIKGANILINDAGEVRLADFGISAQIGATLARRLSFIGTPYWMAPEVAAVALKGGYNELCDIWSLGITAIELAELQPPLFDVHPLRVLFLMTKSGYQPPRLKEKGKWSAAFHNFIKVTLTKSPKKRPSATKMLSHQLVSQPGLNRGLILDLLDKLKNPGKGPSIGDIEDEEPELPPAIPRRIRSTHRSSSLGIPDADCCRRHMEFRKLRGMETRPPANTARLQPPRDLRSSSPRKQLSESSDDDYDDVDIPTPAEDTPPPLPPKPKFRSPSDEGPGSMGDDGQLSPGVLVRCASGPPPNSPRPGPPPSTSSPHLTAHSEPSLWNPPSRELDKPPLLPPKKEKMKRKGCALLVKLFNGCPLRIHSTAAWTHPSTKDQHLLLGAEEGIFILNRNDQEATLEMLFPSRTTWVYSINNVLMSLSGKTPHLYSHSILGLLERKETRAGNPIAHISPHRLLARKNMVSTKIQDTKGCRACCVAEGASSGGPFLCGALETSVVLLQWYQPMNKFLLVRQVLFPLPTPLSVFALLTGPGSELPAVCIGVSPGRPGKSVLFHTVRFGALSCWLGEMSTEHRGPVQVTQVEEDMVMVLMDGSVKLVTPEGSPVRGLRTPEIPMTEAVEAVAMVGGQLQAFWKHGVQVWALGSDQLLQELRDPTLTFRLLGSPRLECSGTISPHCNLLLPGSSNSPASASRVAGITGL
Background: In western blotting, separated proteins are transferred to a membrane and probed.

Test [2] concerns the target T2, HPK1 protein (Homo sapiens, UniProt Q92918).
T2 construct: purchased Signal Chem M23-11G-10
T2 sequence (Q92918 1-346 limits assumed): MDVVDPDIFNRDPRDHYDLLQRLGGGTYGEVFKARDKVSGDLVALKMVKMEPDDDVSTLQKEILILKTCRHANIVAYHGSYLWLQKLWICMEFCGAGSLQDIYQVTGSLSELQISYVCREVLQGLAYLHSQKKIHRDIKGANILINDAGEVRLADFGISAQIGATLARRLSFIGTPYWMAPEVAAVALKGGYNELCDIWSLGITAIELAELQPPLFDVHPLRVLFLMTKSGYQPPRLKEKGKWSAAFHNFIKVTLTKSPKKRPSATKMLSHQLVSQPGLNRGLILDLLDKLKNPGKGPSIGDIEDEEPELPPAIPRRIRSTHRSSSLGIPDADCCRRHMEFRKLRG
As to the kind of experiment: HPK1 enzyme inhibition assay (ADP-Glo). The class given is biochemical. The settings on record: MBP substrate, ATP, ADP-Glo readout. The essentials: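 Recombinant human HPK1 preincubated with compound 60 min at 25 °C, then reaction with MBP (0.2 ug/ul, 2× stock) and ATP (20 μM, 2× stock) 60 min at 25 °C. ADP formed detected by ADP-Glo after ATP depletion and conversion to ATP; IC50 calculated from signal.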
For orientation: ADP-Glo turns the ADP formed in a reaction into a luminescent signal.

The target of test [3] is T3, HPK1 protein (Mus musculus, UniProt P70218).
T3 construct: the CD3+ T cell population was isolated from spleenocytes of mice; endogenous in cells; host or cells: primary mouse splenic CD3+ (pan) T cells
T3 sequence (P70218 1-827): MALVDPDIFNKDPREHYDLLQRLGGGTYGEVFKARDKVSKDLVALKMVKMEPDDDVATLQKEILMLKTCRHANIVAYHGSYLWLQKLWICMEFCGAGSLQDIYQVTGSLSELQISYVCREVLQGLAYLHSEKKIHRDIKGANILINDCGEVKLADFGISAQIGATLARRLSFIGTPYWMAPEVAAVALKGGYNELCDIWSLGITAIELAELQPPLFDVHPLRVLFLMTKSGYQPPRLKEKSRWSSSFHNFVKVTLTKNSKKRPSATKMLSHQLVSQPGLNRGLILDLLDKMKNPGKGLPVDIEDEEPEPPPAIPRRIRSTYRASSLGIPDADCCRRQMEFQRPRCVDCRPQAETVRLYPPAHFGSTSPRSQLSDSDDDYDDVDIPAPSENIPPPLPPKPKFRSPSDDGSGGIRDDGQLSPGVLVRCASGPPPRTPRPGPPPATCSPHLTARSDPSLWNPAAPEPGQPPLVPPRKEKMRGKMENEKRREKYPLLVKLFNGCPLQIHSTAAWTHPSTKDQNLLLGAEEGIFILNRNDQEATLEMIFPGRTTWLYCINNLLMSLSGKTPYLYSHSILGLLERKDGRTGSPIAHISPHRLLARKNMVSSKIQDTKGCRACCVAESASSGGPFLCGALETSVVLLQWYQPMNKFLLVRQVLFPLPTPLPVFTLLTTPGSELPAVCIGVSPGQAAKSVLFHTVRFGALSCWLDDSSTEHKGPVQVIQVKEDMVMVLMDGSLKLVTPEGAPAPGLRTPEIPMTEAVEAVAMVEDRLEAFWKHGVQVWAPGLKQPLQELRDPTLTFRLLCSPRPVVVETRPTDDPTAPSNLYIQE
As to the kind of experiment: HPK1 protein degradation in mouse pan T cell (western blot). It is filed as cell-based. The note with it: 18 h incubation. The procedure: HPK1 protein degradation in mouse pan T cell: the CD3+ T cell population was isolated from spleenocytes of mice by using Pan T cell isolation kit from Miltenyi Biotec (130-095-130) following manufacture's instruction. The isolated T cells were then incubated with a variety of concentrations of compound. After incubation for 18 h, the cells were collected and lysed. The protein concentration was determined by BCA protein assay kit from Thermo (23227). The HPK1 protein level was determined by western blots, using anti-human HPK1 polyclonal antibody from CST (4472). Proteins were loaded into each well of the pre-casting gels and subjected to electrophoretic separation by SDS-PAGE. The protein resolved by SDS-PAGE were transferred to PVDF, blocked by 5% skim milk and probed with anti-human HPK1 antibody or β-actin antibody from CST (3700S), using following standard western blotting procedure.

The test system of the next test is HPK1 p-SLP-76. As to the kind of experiment: HPK1 p-SLP-76 inhibition assay in human PBMC (HTRF). The settings on record: 6 h compound, anti-CD3 stimulation 20 min. It is filed as cell-based. The procedure: Human PBMC were purchased from OriCells (FPB004F-C). Before compound treatment, PBMC were starved in PRMI-1640 medium supplemented with 0.5% FBS overnight. The cell density was adjusted to 1*10^7 cells/mL in assay medium (RPMI-1640 no phenol red with 0.5% FBS) and 16 μL cell suspension was transferred per well to a 384-well plate (Corning #3765). 6× solution of test compound was prepared in assay medium and 4 μL was added per well to the 384-well plate. The plate was then incubated at 37° C., 5% CO2 for 6 h. PBMC in 384-well plate were stimulated with anti-CD3 (BD Biosciences #555329, final conc. is 10 ug/mL) for 20 min at 37° C., 5% CO2 by adding 4 μL 6× antibody solution per well. Phospho-SLP76 HTRF kit was purchased from Cisbio (63ADK076PEH). 8 μL 4× Lysis Buffer was added to 384-well plate after anti-CD3 stimulation. The plate was centrifuged at 1,000 rpm for 1 min, shaken at 250 rpm for 60 min and centrifuged again at 1,000 rpm for 5 min. Afterwards the cell lysates were transferred to the assay plate (Greiner #784075) with 16 μL per well. 4 μL detection antibody mix per well prepared in Detection Buffer was added to the assay plate, followed by centrifugation at 1,000 rpm for 1 min and incubation at 25° C. overnight.

One may read the Dmax as the largest share of the target that was removed. A low value points to shallow degradation. In general, IC50 refers to the concentration that inhibits the measured activity by half. Turning to `CC(COC1CCN(c2cc3c(cc2F)C(=O)N(C2CCC(=O)NC2=O)C3=O)CC1)N1CCN(c2cccc(-c3cnc4[nH]cc(C5CC5)c4c3Cl)c2)C(=O)C1` (stereo not drawn) [Example 49, 5-(4-(2-(4-(3-(4-chloro-3-cyclopropyl-1H-pyrrolo[2,3-b]pyridin-5-yl)phenyl)-3-oxopiperazin-1-yl)propoxy)piperidin-1-yl)-2-(2,6-dioxopiperidin-3-yl)-6-fluoroisoindoline-1,3-dione], the Dmax on HPK1 protein [1] was < 50%. Besides, the 50% inhibitory concentration (IC50) against HPK1 protein [2] was 100 to 1000 nM.

For the compound `CCc1c[nH]c2ncc(-c3cccc(N4CCN(CCC(=O)N5CCN(c6cc7c(cc6F)C(=O)N(C6CCC(=O)NC6=O)C7=O)CC5)CC4=O)c3)c(Cl)c12` (stereo not drawn) [Example 30, 5-(4-(3-(4-(3-(4-chloro-3-ethyl-1H-pyrrolo[2,3-b]pyridin-5-yl)phenyl)-3-oxopiperazin-1-yl)propanoyl)piperazin-1-yl)-2-(2,6-dioxopiperidin-3-yl)-6-fluoroisoindoline-1,3-dione], the Dmax was determined as 80% on HPK1 protein [3] and 61% at HPK1 protein [1]. Further, the IC50 at HPK1 protein [2] was 10 to 100 nM.

With `CCc1c[nH]c2ncc(-c3cccc(N4CCN(CCOC5CCN(c6cc7c(cc6F)C(=O)N(C6CCC(=O)NC6=O)C7=O)CC5)CC4=O)c3)c(Cl)c12` (stereo not drawn) [Example 26], the greatest degradation seen (Dmax) was determined as 91% at HPK1 protein [3] and 86% on HPK1 protein [1]. On HPK1 protein [2], this compound came in with an IC50 of 10 to 100 nM.

In turn, `O=C1CCC(N2Cc3cc(C4=CC5CCC(C4)N5CCCN4CCN(c5cccc(-c6cnc7[nH]cc(C8CC8)c7c6Cl)c5)C(=O)C4)ccc3C2=O)C(=O)N1` (stereo not drawn) [Example 64, 3-(5-(8-(3-(4-(3-(4-chloro-3-cyclopropyl-1H-pyrrolo[2,3-b]pyridin-5-yl)phenyl)-3-oxopiperazin-1-yl)propyl)-8-azabicyclo[3.2.1]oct-2-en-3-yl)-1-oxoisoindolin-2-yl)piperidine-2,6-dione] yielded a Dmax on HPK1 protein [1] of 70%. The IC50 against HPK1 protein [2] is ≤ 10 nM.

As for `O=C1CCC(N2Cc3ccc(N4CCC(OCC(=O)N5CCN(c6cccc(-c7cnc8[nH]cc(C9CC9)c8c7Cl)c6)C(=O)C5)CC4)cc3C2=O)C(=O)N1` (stereo not drawn) [Example 46], the Dmax came out at 90% on HPK1 protein [3] and 51% at HPK1 protein [1]. In addition, on HPK1 protein [2], the IC50 is ≤ 10 nM.

In the case of `CCc1c[nH]c2ncc(-c3cccc(N4CCN(C(=O)CCOC5CCN(c6ccc7c(c6)C(=O)N(C6CCC(=O)NC6=O)C7=O)CC5)CC4=O)c3)c(Cl)c12` (stereo not drawn) [Example 32], the Dmax on HPK1 protein [3] is 90%; at HPK1 protein [1], 78%. In addition, the IC50 against HPK1 protein [2] lay within 10 to 100 nM.

`O=C1CCC(N2C(=O)c3cc(F)c(N4CCC(CCN5CCN(c6cccc(-c7cnc8[nH]cc(C9CC9)c8c7Cl)c6)C(=O)C5)CC4)cc3C2=O)C(=O)N1` (stereo not drawn) [Example 45]: the Dmax worked out at 90% on HPK1 protein [3] and 78% on HPK1 protein [1]. The compound also had an IC50 against HPK1 protein [2] of 10 to 100 nM.

The compound `CCc1c[nH]c2ncc(-c3cccc(N4CCN(C(=O)CCN5CCN(C(=O)c6ccc(C)c(N7CCC(=O)NC7=O)c6)CC5)CC4=O)c3)c(Cl)c12` [Example 50, 1-(5-(4-(3-(4-(3-(4-chloro-3-ethyl-1H-pyrrolo[2,3-b]pyridin-5-yl)phenyl)-3-oxopiperazin-1-yl)-3-oxopropyl)piperazine-1-carbonyl)-2-methylphenyl)dihydro pyrimidine-2,4 (1H,3H)-dione] returned a Dmax on HPK1 protein [3] of 80%. Besides, the IC50 on HPK1 protein [2] was ≤ 10 nM; in the test on HPK1 p-SLP-76 it was > 10 µM.

As for `Cn1nc(N2CCC(=O)NC2=O)c2ccc(C3CCN(CCCN4CCN(c5cccc(-c6cnc7[nH]cc(C8CC8)c7c6Cl)c5)C(=O)C4)CC3)cc21` [Example 77, 1-(6-(1-(3-(4-(3-(4-chloro-3-cyclopropyl-1H-pyrrolo[2,3-b]pyridin-5-yl)phenyl)-3-oxopiperazin-1-yl)propyl)piperidin-4-yl)-1-methyl-1H-indazol-3-yl)dihydro pyrimidine-2,4 (1H,3H)-dione], the Dmax on HPK1 protein [3] was found to be 95%. The figures for the IC50 on HPK1 protein [2] and in the test with HPK1 p-SLP-76 were ≤ 10 nM and ≤ 0.3 µM, respectively.

In the case of `CN(CC(=O)N1CCN(c2cccc(-c3cnc4[nH]cc(C5CC5)c4c3Cl)c2)C(=O)C1)C1CCN(c2cc3c(cc2F)C(=O)N(C2CCC(=O)NC2=O)C3=O)CC1` (stereo not drawn) [Example 42], the Dmax at HPK1 protein [3] was 95%; at HPK1 protein [1], 40%. On HPK1 protein [2], the IC50 was in the range of 10 to 100 nM.

In the case of `O=C1CCC(N2C(=O)c3cc(F)c(N4CCN(CCCN5CCN(c6cccc(-c7cnc8[nH]cc(C9CC9)c8c7Cl)n6)C(=O)C5)CC4)cc3C2=O)C(=O)N1` (stereo not drawn) [Example 53, 5-(4-(3-(4-(6-(4-chloro-3-cyclopropyl-1H-pyrrolo[2,3-b]pyridin-5-yl)pyridin-2-yl)-3-oxopiperazin-1-yl)propyl)piperazin-1-yl)-2-(2,6-dioxopiperidin-3-yl)-6-fluoroisoindoline-1,3-dione], the Dmax at HPK1 protein [3] was 95%; at HPK1 protein [1], 86%. Further, on HPK1 protein [2], the IC50 was in the range of 10 to 100 nM.

On to `O=C1CCC(N2C(=O)c3cc(F)c(N4CCC(OCCCN5CCN(c6cccc(-c7cnc8[nH]cc(CC(F)F)c8c7Cl)c6)C(=O)C5)CC4)cc3C2=O)C(=O)N1` (stereo not drawn) [Example 39, 5-(4-(3-(4-(3-(4-chloro-3-(2,2-difluoroethyl)-1H-pyrrolo[2,3-b]pyridin-5-yl)phenyl)-3-oxopiperazin-1-yl)propoxy)piperidin-1-yl)-2-(2,6-dioxopiperidin-3-yl)-6-fluoroisoindoline-1,3-dione], for which the Dmax at HPK1 protein [3] came to 80%; at HPK1 protein [1] it was 85%. This compound also yielded an IC50 on HPK1 protein [2] of 100 to 1000 nM.

As for `CCc1c[nH]c2ncc(-c3cccc(N4CCN(C(=O)CCN5CCN(c6ccc7c(c6)C(=O)N(C6CCC(=O)NC6=O)C7=O)CC5)CC4=O)c3)c(Cl)c12` (stereo not drawn) [Example 21, 5-(4-(3-(4-(3-(4-chloro-3-ethyl-1H-pyrrolo[2,3-b]pyridin-5-yl)phenyl)-3-oxopiperazin-1-yl)-3-oxopropyl)piperazin-1-yl)-2-(2,6-dioxopiperidin-3-yl)isoindoline-1,3-dione], the Dmax on HPK1 protein [1] came to 60%. Moreover, at HPK1 protein [2], the IC50 lay in the range of 10 to 100 nM.
